Non-standard residues stand in square brackets, D forms with d. Residues, ends and D or L forms follow the SMILES beside them. *: point of attachment. Tos = Cc1ccc(S(=O)(=O)*)cc1; Thz = O=C(O)[C@@H]1CSCN1

These results are taken from US6362341B1, “Benzyl compounds which inhibit leukocyte adhesion mediated by VLA-4” (Athena Neurosciences, Inc., priority 1997, dated 2002).

System in the first data set: not given
Assay: not given
Conditions: not given
As to `O=C(O)[C@H](Cc1ccccc1)NC(=O)[C@@H]1CCCN1S(=O)(=O)c1ccc(Cl)cc1` [Example 10, N-(4-Chlorobenzenesulfonyl)-L-prolyl-L-phenylalanine], the melting point was in the range of 69 to 71 °C.

`COC(=O)c1ccccc1S(=O)(=O)N1CCC[C@H]1C(=O)N[C@@H](Cc1ccccc1)C(=O)O` [Example 18, N-(2-Methoxycarbonylbenzenesulfonyl)-L-prolyl-L-phenylalanine] showed a melting point of 163 to 165 °C.

Consider `Cc1ccc(S(=O)(=O)N2CCC[C@H]2C(=O)N[C@@H](Cc2ccccc2)C(=O)NOCc2ccccc2)cc1` [Example 43, N-(Toluene-4-sulfonyl)-L-prolyl-L-phenylalanine N-Benzyloxyamide], for which the melting point was 127 to 130 °C.

`Cc1ccc(S(=O)(=O)N2CSC[C@H]2C(=O)N[C@@H](Cc2ccccc2)C(=O)O)cc1` [Example 20, N-(Toluene-4-sulfonyl)-L-thiaprolyl-L-phenylalanine] (Tos-[Thz]-Phe-OH) returned a melting point of 60 to 65 °C.

Compound `O=C(O)[C@H](Cc1ccccc1)NC(=O)[C@@H]1CCCN1S(=O)(=O)c1ccc([N+](=O)[O-])cc1` [Example 27, N-(4-Nitrobenzenesulfonyl)-L-prolyl-L-phenylalanine] came in with a melting point of 70 to 80 °C.

Compound `Cc1ccc(S(=O)(=O)N2CCC[C@H]2C(=O)NC(Cc2ccccc2)C(=O)NCCC(=O)O)cc1` (mixture of isomers) [Example 45, N-(Toluene-4-sulfonyl)-L-prolyl-D,L-phenylalanyl-β-alanine] came in with a melting point of 91 to 95 °C.

`Cc1ccc(S(=O)(=O)N2CCC[C@H]2C(=O)NC(Cc2nc[nH]n2)C(=O)O)cc1` (mixture of isomers) [Example 66, N-(Toluene-4-sulfonyl)-L-prolyl-D,L-β-(1,2,4-triazol-3-yl)alanine] gave a melting point of 153 to 163 °C.

A further data set has as its system Experimental Autoimmune Encephalomyelitis (EAE) model, motor impairment. As to the kind of experiment: In vivo evaluation - Experimental Autoimmune Encephalomyelitis (EAE). On the set-up: species or system Lewis rats or Hartley guinea pigs. Particulars: active = delayed onset of symptoms, e.g. clinical scores no greater than 2 or slowed body weight loss as compared to the control; treatment from Day 8, bid, five days.
Turning to `Cc1ccc(S(=O)(=O)N2CCC[C@H]2C(=O)N[C@@H](Cc2ccccc2)C(=O)O)cc1` [Example 3, N-(Toluene-4-sulfonyl)-L-prolyl-L-phenylalanine] (Tos-Pro-Phe-OH), the “activity in EAE model (delay of onset of symptoms)” value is given as “active”.
